Structures can show the parent of a compound that is named as a salt.
Key:
D. melanogaster larvae = assay: Larval chemotaxis assay (attraction to ethyl acetate); format: in vivo, Drosophila melanogaster; settings: for larval preference, compound alone vs. mineral oil vehicle: 10 µL of 100 mM on plate filter
Method: We have previously provided a detailed description of these methods. Briefly, Canton-S (CS) flies were used as wild type (wt). The experimental chamber was a 100 × 15 mm polystyrene Petri dish (VWR) with 20 mL of 1.1% agarose coating the bottom. In this assay, 50 third-instar larvae were placed inside a “starting circle” at the center of the plate (the circle was drawn on the outside bottom of the plate). A line was also drawn that divided the plate in half. Small filter paper discs (d = 6 mm, Whatman Cellulose Filter Paper, # 1030 023) were placed on opposite sides of the plate (see Fig. 8A). Onto each filter paper disc was placed 10 μL of solution, containing either vehicle of dilution (mineral oil), odorant attractant (EA, diluted in mineral oil) or an Orco antagonist compound (diluted in mineral oil). The sides of the plate on which the compounds or vehicle were placed were alternated from experiment to experiment.
In order to test Orco antagonists for the ability to affect the chemotaxis assay, a large (d = 9 cm) filter paper (Whatman Filter Paper # D00161-S) was adhered with double-sided tape to the inside of the Petri dish lid. This allowed the larvae to be exposed to Orco antagonists in an airborne context. For light repulsion experiments, we used a Zeiss CL6000 LED light source at 76% intensity. Following the 5 min migratory period, plates were photographed, coded and then blind counted. Any larvae still within the starting circle or touching the center line were excluded from the analysis. A Response Index (RI) was calculated as RI = (S − C)/(S + C), where S is the number of larvae on the stimulus (EA) side and C is the number of larvae on the control (mineral oil) side. RI = 1 would indicate complete attraction, RI = −1 would indicate complete repulsion, and RI = 0 would indicate no preference. Statistical significance was assessed using a one-way analysis of the variance followed by Dunnett’s’s post-test.

Dmel\Or35a + Dmel\Orco = molecular target: T1, Dmel\Or35a + Dmel\Orco (Drosophila melanogaster, UniProt Q9VNB5); assay: Inhibition of heteromeric OR in oocytes (hexanol or OLC12 activation); format: cell-based; settings: for inhibition of odorant activation: 100 µM antagonist, 1 µM hexanol; for antagonism of OLC12 (Orco agonist) activation of heteromeric OR: 100 or 300 µM antagonist, 10 µM OLC12
T1 construct: expressed in transfected cells; host or cells: Xenopus laevis oocytes
T1 sequence (Q9VNB5 1-486): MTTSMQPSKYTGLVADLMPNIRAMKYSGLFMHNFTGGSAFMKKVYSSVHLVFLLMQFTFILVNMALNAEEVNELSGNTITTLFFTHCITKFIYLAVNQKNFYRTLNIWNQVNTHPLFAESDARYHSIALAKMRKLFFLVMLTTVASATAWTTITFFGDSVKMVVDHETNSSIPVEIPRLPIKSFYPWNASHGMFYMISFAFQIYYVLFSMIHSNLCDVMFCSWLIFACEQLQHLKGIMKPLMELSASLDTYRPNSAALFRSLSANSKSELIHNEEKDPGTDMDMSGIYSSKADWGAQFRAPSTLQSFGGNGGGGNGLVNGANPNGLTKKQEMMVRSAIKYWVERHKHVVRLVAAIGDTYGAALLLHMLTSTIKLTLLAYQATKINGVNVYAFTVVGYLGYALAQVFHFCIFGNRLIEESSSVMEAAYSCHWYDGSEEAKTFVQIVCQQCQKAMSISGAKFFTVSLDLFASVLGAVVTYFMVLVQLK
T1 sequence (Q9V3Q2 1-409 partner): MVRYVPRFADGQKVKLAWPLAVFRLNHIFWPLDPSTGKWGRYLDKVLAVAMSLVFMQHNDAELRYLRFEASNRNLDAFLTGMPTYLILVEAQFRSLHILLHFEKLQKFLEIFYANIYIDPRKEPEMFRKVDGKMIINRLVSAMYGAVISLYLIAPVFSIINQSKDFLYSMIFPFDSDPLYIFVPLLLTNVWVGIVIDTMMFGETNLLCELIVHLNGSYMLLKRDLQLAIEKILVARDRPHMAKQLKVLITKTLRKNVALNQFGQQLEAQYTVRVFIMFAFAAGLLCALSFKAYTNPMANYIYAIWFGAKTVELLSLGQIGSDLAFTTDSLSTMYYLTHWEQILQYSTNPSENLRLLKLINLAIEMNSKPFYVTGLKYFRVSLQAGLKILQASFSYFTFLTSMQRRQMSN
Method: An automated parallel electrophysiology system (OpusExpress 6000 A, Molecular Devices) was used to record Orco agonist (OLC12) or odorant induced currents under two-electrode voltage clamp. Oocytes were perfused with ND96 (in mM: 96 NaCl, 2 KCl, 1 CaCl2, 1 MgCl2, 5 HEPES, pH 7.4). DMSO was used to prepare 1 M or 100 mM stock solutions of test compounds, which were then diluted in ND96 on the day of the experiment. Compounds were applied at a flow rate of 1.0 mL/min, with extensive washing in ND96 at 4.6 mL/min between applications. Micropipettes with resistances of 0.2–2.0 MΩ were filled with 3 M KCl. The holding potential was −70 mV. Current responses were filtered (4-pole, Bessel, low pass) at 20 Hz (−3 db) and sampled at 100 Hz. OpusXpress 1.1 software (Molecular Devices) was used to capture and store current responses.
To measure the ability of Orco antagonists to inhibit odorant activation, oocytes expressing heteromeric ORs (Orco + ORX) were exposed to a 30 sec application of odorant followed by a 20 min wash. Oocytes were then exposed to a 90 sec application of Orco antagonist, immediately followed by a 30 sec co-application of Orco antagonist and odorant. The current response to odorant in the presence of Orco antagonist was compared to the preceding response to odorant alone and represented as a percentage. This value was then normalized to the value obtained when the assay was run in the absence of antagonist (sham).
Figure S3. Effects of Orco antagonists on heteromeric ORs. […]
heteromeric complexes of odorant specificity subunits and Orco. The Orco antagonists tested were 3-isopropyl-6-methyl-catechol (3 I6 MC), a potent compound from the input training set, and two compounds id e ntified in Fig u re 4 an d Ta b le 1 : 2-tert-butyl-6-methylphenol (B MP ) and linalyl formate (LF) . These compounds were tested for antagonist activity against odorant activation of three ORs from Anopheles gambiae (Agam\Or28 + Agam\Orco, Agam\Or39 + A ga m\Orco, Agam\Or65 + A ga m\Orco), o ne O R fro m Culex quinquefasciatus, the southern house mosquito (Cq u i\Or21 + Cqui\Orco) an d on e O R f ro m Drosophila melanogaster (Dme l\Or35a + Dmel\Orco). Each OR was activated by its cognate odorant agonist applied at an approximate EC50 concentration. […]
SEM (n = 4). […] Statistical significance of the data in each panel was assessed by one-way analysis of variance followed by Dunnett’s multiple comparison test using the pre-normalized values for each antagonist compared to the values obtained in the sham recordings (*, p < 0 .0 5; **, p < 0. 01; ***, p < 0 . 00 1 ).

SMILES	larval attraction to EA with airborne compound (D. melanogaster larvae; 30 mM on lid filter)	larval preference, compound alone vs. mineral oil vehicle (D. melanogaster larvae)	larval attraction to EA with airborne compound (D. melanogaster larvae; 685 µL of 100 mM on lid filter)	inhibition of odorant activation (Dmel\Or35a + Dmel\Orco)	antagonism of OLC12 (Orco agonist) activation of heteromeric OR (Dmel\Or35a + Dmel\Orco)
C=CC(C)(CCC=C(C)C)OC=O (stereo not drawn) [LF, linalyl formate]	significantly reduce larval attraction to EA	displayed no preference	completely abolished larval attraction to EA	able to inhibit odorant activation	able to antagonize OLC12
Cc1cccc(C(C)(C)C)c1O [BMP, 2-tert-butyl-6-methylphenol]	did not significantly affect attraction to EA	displayed no preference	completely abolished larval attraction to EA	able to inhibit odorant activation	able to antagonize OLC12
Cc1ccc(C(C)C)c(O)c1O [3I6MC, 3-isopropyl-6-methyl catechol]				could inhibit odorant activation	could antagonize OLC12
